Assay results taken from patent US6147097A, “Imidazole derivatives as anti-HIV agents” (Shionogi & Co., Ltd., priority 1994, dated 2000).
≈ marks a conversion by molar mass, not a printed value. Like-named read-outs stand apart in the source and are kept apart here.

What was measured:
[1] = test system: HIV (HTLV-IIIB strain); assay: microbe, parasite or virus in culture; assay type: cell-based; conditions: Human immunodeficiency virus 1, IIIB, MT4, 120 h
Method: The anti-HIV activity of each of the compounds produced in Examples was assayed by the following procedures. […] On the other hand, the test compound was diluted with the above culture medium to predetermined concentrations and distributed in 50 μl aliquots into a 96-well microtiter plate. Then, d suspension of MT-4 cells was added in 100 μl aliquots (3.5×10^4 cells per well) and then the above HIV-containing supernatant diluted with the above culture medium was added, 50 μl (60 pfu (plaque forming units)) per well. (2) The plate was incubated in a CO2 incubator at 37° C. for 5 days. Then, 30 μl/well of 3-(4,5-dimethyl thiazol-2-yl)-2,5-diphenyltetrazolium bromide (MTT) (5 mg/ml PBS) was added and the incubation was further continued for 1 hour. The surviving cells reducing MTT yield precipitation of formazan. Therefore, 150 μl portions of the culture supernatant were removed from all wells and, instead, 150 μl of a solution (10% Triton X-100 and 0.4% (v/v) HCl-added isopropyl alcohol) was added. The plate was shaken on a plate mixer to dissolve the formazan.

[2] = cytotoxicity in MT-4 cells (MTT, culture medium in place of HIV); assay type: cell-based; conditions: human
Method: The anti-HIV activity of each of the compounds produced in Examples was assayed by the following procedures. (1) Human T cell line MOLT-4 clone 8 persistently infected by HIV (HTLV-IIIB strain) was cultured in an RPMI-1640 medium supplemented with 10% fetal calf serum, the culture supernatant was filtered, and the titer of virus was determined; the culture supernatant was stored at -80° C. On the other hand, the test compound was diluted with the above culture medium to predetermined concentrations and distributed in 50 μl aliquots into a 96-well microtiter plate. Then, d suspension of MT-4 cells was added in 100 μl aliquots (3.5×10^4 cells per well) and then the above HIV-containing supernatant diluted with the above culture medium was added, 50 μl (60 pfu (plaque forming units)) per well. (2) The plate was incubated in a CO2 incubator at 37° C. for 5 days. Then, 30 μl/well of 3-(4,5-dimethyl thiazol-2-yl)-2,5-diphenyltetrazolium bromide (MTT) (5 mg/ml PBS) was added and the incubation was further continued for 1 hour. The surviving cells reducing MTT yield precipitation of formazan. Therefore, 150 μl portions of the culture supernatant were removed from all wells and, instead, 150 μl of a solution (10% Triton X-100 and 0.4% (v/v) HCl-added isopropyl alcohol) was added. The plate was shaken on a plate mixer to dissolve the formazan. The OD of formazan was measured with a microreader at 560 nm arid 690 nm (reference wavelength) and the result was compared with that of control.
The cytotoxicity of each of the compounds produced in Examples was assayed. In place of the HIV-containing supernatant (the virus suspension) in (1) in Test Example 1, 50 μl of the culture medium was added to each well, and the cytotoxicity was determined in the same manner as that for (2) in Test Example 1.

[3] = target: T1, purified recombinant HIV-1 reverse transcriptase (Human immunodeficiency virus type 1 group M subtype B, UniProt P04585); assay: reverse transcriptase inhibition, poly(rA)/(dT) template primer, [3H]dTTP uptake; assay type: biochemical
T1 construct: purified recombinant HIV-1 reverse transcriptase; made in house; host or cells: Escherichia coli
Method: The reverse transcriptase activity of each of the compounds synthesized in Examples was assayed by the following procedures.
Using the purified recombinant HIV-1 reverse transcriptase RT, E.C. 2.7.7.49) obtained by expression in Escherichia Coli, a 96-well plate assay system was established for assaying a large number of samples. The RT inhibitory activity was determined as follows. To 11 μl of a solution of the test inhibitor in water or MSO was added 100 μl of a reaction mixture (0.1 unit/100 μl RT, 50 mM Tris-HCl pH 8.3, 150 mM KCl, 10 mM MgCl2, 3 mM dithiothreitol, 0.1% Nonidet P-40, 10 μg/ml. poly(rA) and 10 μg/ml (dT)12-1.8 as template and primer, and 4 μM dTTP, 1 μCi/100 μl [^3 H]dTTP as substrate) and the mixture was incubated at 37° C. for 1 hour and, then, immediately cooled on ice. Using a cell harvester, the reaction mixture was transferred to a DEAE-filter mat (LKB-Pharmacia). Then, using the wash line of the cell harvester, the cells were washed twice with 5% Na2 HPO4 /H2 O and once with water and dried at 95° C. for 15 minutes. […] The inhibitory activity was expressed in percent inhibition relative to the uptake on water or DMSO control.

[4] = MT-4 cells, 60 pfu HIV per well, 37° C., 5 days, MTT, Tables 1 and 2, read-out: EC50
[5] = MT-4 cells, no virus, 37° C., 5 days, MTT, Table 3, read-out: CC50
[6] = read-out: RT IC50, pH 8.3, 37° C., 1 hour, Tables 5 and 6

Compound	EC50 [1, 4] [µg/mL]	CC50 at 120 h [2, 5] [µg/mL]	IC50 [3] [µM]	CC50 at 120 h ([2]; mt-4 cells) [µg/mL]	IC50 [3, 6] [µM]	EC50 [1] [µg/mL]
CC(C)c1nc(CN)n(C)c1Sc1cc(Cl)cc(Cl)c1.O=C(O)C(=O)O [Compound I-66, 2-aminomethyl-5-(3,5-dichlorophenylthio)-4-isopropyl-1-methylimidazole oxalate]	0.016	6.3 to 12.5	1.64	–	–	–
CC(C)c1nc(CCO)n(Cc2ccc([N+](=O)[O-])cc2)c1Sc1cc(Cl)cc(Cl)c1 [Compound 126a, 5-(3,5-dichlorophenylthio)-2-(2-hydroxyethyl)-4-isopropyl-1-p-nitrobenzyl-1H-imidazole]	0.008 (≈ 0.0172 µM)	–	2.59	6.3 (≈ 13.5 µM)	–	–
CC(C)c1nc(CO)n(Cc2ccccc2[N+](=O)[O-])c1Sc1cc(Cl)cc(Cl)c1 [Compound 103c, 5-(3,5-dichlorophenylthio)-2-hydroxymethyl-4-isopropyl-1-(o-nitrobenzyl)-1H-imidazole]	0.06 to 0.13 (≈ 0.133 to 0.287 µM)	–	57.9	6.3 to 12.5 (≈ 13.9 to 27.6 µM)	–	–
CC(C)c1nc(CO)n(CCCCc2ccccc2)c1Sc1cc(Cl)cc(Cl)c1 [Compound I-123, 5-(3,5-dichlorophenylthio)-2-hydroxymethyl-4-isopropyl-1-(4-phenylbutyl)-1H-imidazole]	0.06 (≈ 0.133 µM)	–	77.4	12.5 (≈ 27.8 µM)	–	–
CC(C)c1nc(CCO)n(Cc2cccc([N+](=O)[O-])c2)c1Sc1cc(Cl)cc(Cl)c1 [Compound 126b, 5-(3,5-Dichlorophenylthio)-2-(2-hydroxyethyl)-4-isopropyl-1-m-nitrobenzyl-1H-imidazole]	0.008 to 0.016 (≈ 0.0172 to 0.0343 µM)	–	8.58	3.1 to 6.3 (≈ 6.65 to 13.5 µM)	–	–
CC(O)Cn1c(CO)nc(C(C)C)c1Sc1cc(Cl)cc(Cl)c1 (stereo not drawn) [I-32', [1-(2-hydroxypropyl)-5-(3,5-dichlorophenylthio)-4-isopropyl-1H-imidazol-2-yl]methanol]	0.002 to 0.004 (≈ 0.00533 to 0.0107 µM)	12.5 to 25 (≈ 33.3 to 66.6 µM)	1.52	–	–	–
CC(C)c1nc(CO)n(Cc2cnc3ccccc3c2)c1Sc1cc(Cl)cc(Cl)c1 [Compound 109, 2-hydroxymethyl-5-(3,5-dichlorophenylthio)-4-isopropyl-1-(quinolin-3-ylmethyl)-1H-imidazole]	0.008 (≈ 0.0175 µM)	–	4.36	100 (≈ 218 µM)	–	–
Cc1nc(C(C)C(=O)O)c(Sc2cccc(Cl)c2)n1C (stereo not drawn) [Compound I-99]	6.3 (≈ 20.3 µM)	> 100	> 322	–	–	–
CC(C)c1nc(CCN)n(C)c1Sc1cc(Cl)cc(Cl)c1 [Compound I-82, 2-(2-aminoethyl)-5-(3,5-dichlorophenylthio)-4-isopropyl-1-methyl-1H-imidazole]	0.25 (≈ 0.726 µM)	–	–	1.5 to 3.2 (≈ 4.36 to 9.29 µM)	1.28	–
CCOC(=O)Cn1c(CCCOCc2ccccc2)nc(C(C)C)c1Sc1cc(Cl)cc(Cl)c1 [Compound 136d, (2-(3-benzyloxypropyl)-5-(3,5-dichlorophenylthio)-4-isopropyl-1H-imidazol-1-yl)-ethyl acetate]	0.5	–	> 192	12.5	–	–
CC(C)c1nc(CN)n(Cc2cccnc2)c1Sc1cc(Cl)cc(Cl)c1 [Compound I-94, 2-aminomethyl-5-(3,5-dichlorophenylthio)-4-isopropyl-1-(pyridin-3-yl)methyl-1H-imidazole]	0.03 (≈ 0.0736 µM)	12.5 to 25 (≈ 30.7 to 61.4 µM)	4.66	–	–	–
CC(C)c1nc(COC(N)=O)n(CF)c1Sc1cc(Cl)cc(Cl)c1 [Compound I-56, 2-carbamoyloxymethyl-5-(3,5-dichlorophenylthio)-1-fluoromethyl-4-isopropyl-1H-imidazole]	–	10 to 100 (≈ 25.5 to 255 µM)	2.37	–	–	0.008 (≈ 0.0204 µM)
CC(=O)Cn1c(CO)nc(C(C)C)c1Sc1cc(Cl)cc(Cl)c1 [Compound I-32]	0.06 (≈ 0.161 µM)	10 to 100 (≈ 26.8 to 268 µM)	7.23	–	–	–
CC(C)c1nc(CN)n(C(C)C)c1Sc1cc(Cl)cc(Cl)c1 [Compound I-72, 2-aminomethyl-5-(3,5-dichlorophenylthio)-1,4-diisopropylimidazole]	0.03 to 0.06 (≈ 0.0837 to 0.167 µM)	1 to 10 (≈ 2.79 to 27.9 µM)	2.23	–	–	–
Cc1cc(C)cc(Sc2c(C(C)C)nc(C=NO)n2C)c1 [Compound I-10, 5-(3,5-dimethylphenylthio)-4-isopropyl-1-methyl-1H-imidazole-2-carbaldehyde oxime]	1 (≈ 3.3 µM)	> 100	> 330	–	–	–
CC(C)c1nc(COC(N)=O)n(Cc2cnc3ccccc3c2)c1Sc1cc(Cl)cc(Cl)c1 [Compound I-128, 2-carbamoyloxymethyl-5-(3,5-dichlorophenylthio)-4-isopropyl-1-(quinolin-3-ylmethyl)-1H-imidazole]	< 0.008	–	5.38	> 100	–	–
CCn1c(COCCOC(N)=O)nc(C(C)C)c1Sc1cc(Cl)cc(Cl)c1 [Compound I-63, 2-(2-carbamoyloxyethoxy)methyl-5-(3,5-dichlorophenylthio)-1-ethyl-4-isopropyl-1H-imidazole]	0.25 (≈ 0.578 µM)	12.5 (≈ 28.9 µM)	10.9	–	–	–
CC(C)c1nc(CCOCc2ccccc2)n(C)c1Sc1cc(Cl)cc(Cl)c1 [Compound I-136, 2-(2-benzyloxyethyl)-5-(3,5-dichlorophenylthio)-4-isopropyl-1-methyl-1H-imidazole]	0.008 to 0.016 (≈ 0.0184 to 0.0367 µM)	–	–	12.5 (≈ 28.7 µM)	4.59	–
CC(C)c1nc(CCOCc2ccccc2)n(CCO)c1Sc1cc(Cl)cc(Cl)c1 [Compound 130d, 2-(2-(2-benzyloxyethyl)-5-(3,5-dichlorophenylthio)-4-isopropyl-1H-imidazol-1-yl)ethanol]	0.5 to 1 (≈ 1.07 to 2.15 µM)	–	> 215	6.3 (≈ 13.5 µM)	–	–
CC(C)c1nc(CN)n(Cc2ccccn2)c1Sc1cc(Cl)cc(Cl)c1 [Compound I-95]	0.03 to 0.06 (≈ 0.0736 to 0.147 µM)	–	1.74	6.3 (≈ 15.5 µM)	–	–
CCn1c(COCCOC(C)=O)nc(C(C)C)c1Sc1cc(Cl)cc(Cl)c1 [Compound I-62, 2-{[5-(3,5-dichlorophenylthlio)-1-ethyl-4-isopropyl-1H-imidazol-2-yl]methoxy} ethyl acetate]	0.03 to 0.06	12.5 to 25	15.8	–	–	–
Cc1nc(C(C)C)c(Cc2cc(Cl)cc(Cl)c2)n1C [Compound I-100, 5-(3,5-dichlorobenzyl)-1,2-dimethyl-4-isopropyl-1H-imidazole]	1 (≈ 3.36 µM)	12.5 (≈ 42.1 µM)	42.1	–	–	–
CC(C)c1nc(COCc2ccccc2)n(CCO)c1Sc1cc(Cl)cc(Cl)c1 [Compound 118c, 2-[2-benzyloxymethyl-5-(3,5-dichlorophenylthio)-4-i-sopropyl-1H-imidazol-1-yl]ethanol]	1 (≈ 2.22 µM)	–	> 222	6.3 to 12.5 (≈ 14 to 27.7 µM)	–	–
CC(C)c1nc(CO)n(C(C)C)c1Sc1cc(Cl)cc(Cl)c1 [Compound I-27, [5-(3,5-dichlorophenylthio)-1,4-diisopropyl-1H-imidazol-2-yl]methanol]	0.03 (≈ 0.0835 µM)	10 to 100 (≈ 27.8 to 278 µM)	3.34	–	–	–
